Article PMC4965013, “Open Source Drug Discovery with the Malaria Box Compound Collection for Neglected Diseases and Beyond” (PLoS Pathogens, 2016)
pEC50: −log10 of the molar value. Each block holds one compound with its values, some of them ahead of it.

Columns and labels:
[1] = system: P. falciparum 3D7 trophozoites; test: Metabolomic fingerprint profiling LC-MS; assay type: cell-based, Plasmodium falciparum; design: UDP-D-glucose / ADP-D-glucose: unit not given here; conditions: for Acetyllysine / N-acetyl-L-ornithine / N-carbamoyl-L-aspartate / NADPH / dAMP / dCMP / dTDP / dTMP / dTTP / dihydroorotate / orotate / DLH / DLS/SDL/SID / PD / PEE / PVNF / 3-phosphoglycerate / ADP-D-glucose / ATP / CDP / D-sedoheptulose-1/7-phosphate / FAD / GMP / NAD+ / NADP+ / Octoluse Bisphosphate / Pyroglutamic acid / UDP-D-glucose / UDP-D-glucuronate / UDP-N-acetyl-glucosamine / UDP / UMP / UTP / a-ketoglutarate / citrate/isocitrate / cytidine / dATP / dGMP/AMP / fumarate / glucose-1/6-phosphate / glycerate / guanine / guanosine / hypoxanthine / indole / inosine / nicotinate / ornithine / phosphoenolpyruvate / pyruvate / ribose-phosphate / sarcosine/alanine / sn-glycerol-3-phosphate / succinate/methylmalonic acid / uridine / xanthosine: S2 Table Metabolomics; for Acetyllysine: metabolite Acetyllysine; for N-acetyl-L-ornithine: metabolite N-acetyl-L-ornithine; for N-carbamoyl-L-aspartate: metabolite N-carbamoyl-L-aspartate; for NADPH: metabolite NADPH; for dAMP: metabolite dAMP; for dCMP: metabolite dCMP; for dTDP: metabolite dTDP; for dTMP: metabolite dTMP; for dTTP: metabolite dTTP; for dihydroorotate: metabolite dihydroorotate; for orotate: metabolite orotate; for DLH: peptide DLH; for DLS/SDL/SID: peptide DLS/SDL/SID; for PD: peptide PD; for PEE: peptide PEE; for PVNF: peptide PVNF; for 3-phosphoglycerate: metabolite 3-phosphoglycerate; for ADP-D-glucose: metabolite ADP-D-glucose; for ATP: metabolite ATP; for CDP: metabolite CDP; for CDP / D-sedoheptulose-1/7-phosphate / GMP / Octoluse Bisphosphate / UDP / UMP / UTP / citrate/isocitrate / dGMP/AMP / fumarate / glucose-1/6-phosphate / glycerate / guanine / guanosine / inosine / pyruvate / sarcosine/alanine / succinate/methylmalonic acid / uridine / xanthosine: change in metabolite level after compound treatment; for D-sedoheptulose-1/7-phosphate: metabolite D-sedoheptulose-1/7-phosphate; for FAD: metabolite FAD; for GMP: metabolite GMP; for NAD+: metabolite NAD+; for NADP+: metabolite NADP+; for Octoluse Bisphosphate: metabolite Octoluse Bisphosphate; for Pyroglutamic acid: metabolite Pyroglutamic acid; for UDP-D-glucose: metabolite UDP-D-glucose; for UDP-D-glucuronate: metabolite UDP-D-glucuronate; for UDP-N-acetyl-glucosamine: metabolite UDP-N-acetyl-glucosamine; for UDP: metabolite UDP; for UMP: metabolite UMP; for UTP: metabolite UTP; for a-ketoglutarate: metabolite a-ketoglutarate; for citrate/isocitrate: metabolite citrate/isocitrate; for cytidine: metabolite cytidine; for dATP: metabolite dATP; for dGMP/AMP: metabolite dGMP/AMP; for fumarate: metabolite fumarate; for glucose-1/6-phosphate: metabolite glucose-1/6-phosphate; for glycerate: metabolite glycerate; for guanine: metabolite guanine; for guanosine: metabolite guanosine; for hypoxanthine: metabolite hypoxanthine; for indole: metabolite indole; for inosine: metabolite inosine; for 2_3-Diphosphoglyceric acid / 4-phosphopantothenate / 6-phospho-D-gluconate / FMN / IMP / Pyrophosphate / Sedoheptoluse bisphosphate / cyclic-AMP / glutathione disulfide / lactate / myo-inositol: metabolite level change after treatment; for nicotinate: metabolite nicotinate; for ornithine: metabolite ornithine; for phosphoenolpyruvate: metabolite phosphoenolpyruvate; for pyruvate: metabolite pyruvate; for ribose-phosphate: metabolite ribose-phosphate; for sarcosine/alanine: metabolite sarcosine/alanine; for sn-glycerol-3-phosphate: metabolite sn-glycerol-3-phosphate; for succinate/methylmalonic acid: metabolite succinate/methylmalonic acid; for uridine: metabolite uridine; for xanthosine: metabolite xanthosine
P. falciparum = test: EC50 listed in S2 Table Metabolomics (used to set the concentration tested); assay type: cell-based; conditions: Plasmodium falciparum; EC50 used for Factor_XEC50 in metabolomics; read-out: EC50_nM

- pEC50 (P. falciparum): 6.57
Structure (SMILES): Cc1cc(C)c2c(c1)OCN(Cc1ccccc1Cl)C2 [MMV006558]
- Acetyllysine [1]: -2.938
- N-acetyl-L-ornithine [1]: -1.964
- N-carbamoyl-L-aspartate [1]: -1.702
- NADPH [1]: 1.445
- dAMP [1]: -0.9651
- dCMP [1]: -1.6
- dTDP [1]: -0.8236
- dTMP [1]: -0.6183
- dTTP [1]: -0.3776
- dihydroorotate [1]: -0.3745
- orotate [1]: -1.522
- DLH [1]: -1.617
- DLS/SDL/SID [1]: -1.662
- PD [1]: -0.9196
- PEE [1]: -0.2697
- PVNF [1]: -2.308
- 3-phosphoglycerate [1]: 0.4267
- ADP-D-glucose [1]: 0.5003
- ATP [1]: -0.07449
- CDP [1]: -0.458
- D-sedoheptulose-1/7-phosphate [1]: -0.2481
- FAD [1]: -0.09577
- GMP [1]: -0.6278
- NAD+ [1]: -0.187
- NADP+ [1]: 0.696
- Octoluse Bisphosphate [1]: 0.1942
- Pyroglutamic acid [1]: -0.3768
- UDP-D-glucose [1]: -0.01001
- UDP-D-glucuronate [1]: -0.03433
- UDP-N-acetyl-glucosamine [1]: -0.1316
- UDP [1]: -0.1918
- UMP [1]: -1.063
- UTP [1]: -0.2178
- a-ketoglutarate [1]: -0.938
- citrate/isocitrate [1]: -0.4783
- cytidine [1]: 0.109
- dATP [1]: -0.2852
- dGMP/AMP [1]: -0.5349
- fumarate [1]: -0.8198
- glucose-1/6-phosphate [1]: -0.2057
- glycerate [1]: -0.7466
- guanine [1]: -1.035
- guanosine [1]: -2.479
- hypoxanthine [1]: -0.7995
- indole [1]: -0.5445
- inosine [1]: -0.9523
- 2_3-Diphosphoglyceric acid [1]: 0.34
- 4-phosphopantothenate [1]: -0.8939
- 6-phospho-D-gluconate [1]: 0.2839
- FMN [1]: -0.2862
- IMP [1]: -0.2354
- Pyrophosphate [1]: 0.3685
- Sedoheptoluse bisphosphate [1]: 0.2016
- cyclic-AMP [1]: -0.8187
- glutathione disulfide [1]: -0.2625
- lactate [1]: -0.7314
- myo-inositol [1]: -0.7596
- nicotinate [1]: -0.1344
- ornithine [1]: -0.1775
- phosphoenolpyruvate [1]: 0.3748
- pyruvate [1]: -0.4201
- ribose-phosphate [1]: -0.1559
- sarcosine/alanine [1]: -0.2827
- sn-glycerol-3-phosphate [1]: 0.1135
- succinate/methylmalonic acid [1]: -0.725
- uridine [1]: -1.514
- xanthosine [1]: -1.032

- pEC50 (P. falciparum): 6.85
Structure (SMILES): O=[N+]([O-])c1ccc(C=NNc2nc3ccccc3[nH]2)cc1 [MMV666607]
- Acetyllysine [1]: -1.035
- N-acetyl-L-ornithine [1]: -1.151
- N-carbamoyl-L-aspartate [1]: 0.2298
- NADPH [1]: 4.216
- dAMP [1]: 0.3403
- dCMP [1]: 0.1583
- dTDP [1]: 0.005163
- dTMP [1]: -0.3628
- dTTP [1]: 0.4469
- dihydroorotate [1]: 0.1326
- orotate [1]: 0.05442
- DLH [1]: -0.8554
- DLS/SDL/SID [1]: -0.615
- PD [1]: -0.4537
- PEE [1]: -0.9074
- PVNF [1]: -1.15
- 3-phosphoglycerate [1]: 0.2233
- ADP-D-glucose [1]: 0.2125
- ATP [1]: 0.06188
- CDP [1]: -0.1249
- D-sedoheptulose-1/7-phosphate [1]: -0.1388
- FAD [1]: -0.1276
- GMP [1]: -0.06014
- NAD+ [1]: -0.1512
- NADP+ [1]: 0.1119
- Octoluse Bisphosphate [1]: -0.09651
- Pyroglutamic acid [1]: -0.1918
- UDP-D-glucose [1]: -0.06053
- UDP-D-glucuronate [1]: -0.006477
- UDP-N-acetyl-glucosamine [1]: -0.08493
- UDP [1]: -0.2957
- UMP [1]: -0.07591
- UTP [1]: 0.3053
- a-ketoglutarate [1]: -0.2127
- citrate/isocitrate [1]: -0.1765
- cytidine [1]: -0.4158
- dATP [1]: 0.1896
- dGMP/AMP [1]: 0.09335
- fumarate [1]: 0.008021
- glucose-1/6-phosphate [1]: -0.3879
- glycerate [1]: -0.4956
- guanine [1]: -0.1214
- guanosine [1]: 0.1402
- hypoxanthine [1]: -0.3554
- indole [1]: -0.1954
- inosine [1]: -0.3969
- 2_3-Diphosphoglyceric acid [1]: 0.1914
- 4-phosphopantothenate [1]: 0.07423
- 6-phospho-D-gluconate [1]: 0.02335
- FMN [1]: -0.06375
- IMP [1]: 0.01329
- Pyrophosphate [1]: 0.2379
- Sedoheptoluse bisphosphate [1]: 0.02366
- cyclic-AMP [1]: 0.0305
- glutathione disulfide [1]: 0.01063
- lactate [1]: -0.3072
- myo-inositol [1]: -0.4133
- nicotinate [1]: 0.09712
- ornithine [1]: -0.3198
- phosphoenolpyruvate [1]: 0.2853
- pyruvate [1]: -0.3236
- ribose-phosphate [1]: 0.1666
- sarcosine/alanine [1]: -0.06565
- sn-glycerol-3-phosphate [1]: -0.0116
- succinate/methylmalonic acid [1]: 0.01013
- uridine [1]: -0.4646
- xanthosine [1]: 0.06506

- pEC50 (P. falciparum): 6.28
Structure (SMILES): COc1ccc2c(=O)cc(C(Cl)(Cl)Cl)oc2c1 [MMV665820]
- Acetyllysine [1]: -2.345
- N-acetyl-L-ornithine [1]: -3.277
- N-carbamoyl-L-aspartate [1]: -3.842
- NADPH [1]: -0.2986
- dAMP [1]: -0.8398
- dCMP [1]: -0.0001746
- dTDP [1]: -1.2684
- dTMP [1]: -0.5586
- dTTP [1]: -2.5615
- dihydroorotate [1]: -2.921
- orotate [1]: -2.382
- DLH [1]: -2.464
- DLS/SDL/SID [1]: -1.694
- PD [1]: -4.28
- PEE [1]: -1.0444
- PVNF [1]: -2.464
- 3-phosphoglycerate [1]: -2.392
- ADP-D-glucose [1]: -0.3227
- ATP [1]: -1.288
- CDP [1]: -0.9038
- D-sedoheptulose-1/7-phosphate [1]: 0.5405
- FAD [1]: -1.407
- GMP [1]: -1.717
- NAD+ [1]: -0.3778
- NADP+ [1]: -0.008784
- Octoluse Bisphosphate [1]: -4.199
- Pyroglutamic acid [1]: 0.4738
- UDP-D-glucose [1]: -0.2217
- UDP-D-glucuronate [1]: -0.02834
- UDP-N-acetyl-glucosamine [1]: -0.2815
- UDP [1]: -0.477
- UMP [1]: -2.629
- UTP [1]: -1.869
- a-ketoglutarate [1]: 0.2276
- citrate/isocitrate [1]: -0.6427
- cytidine [1]: -0.5777
- dATP [1]: -2.2274
- dGMP/AMP [1]: 0.08346
- fumarate [1]: -2.544
- glucose-1/6-phosphate [1]: -2.012
- glycerate [1]: -1.622
- guanine [1]: -1.809
- guanosine [1]: -1.332
- hypoxanthine [1]: 0.4621
- indole [1]: 0.006213
- inosine [1]: -2.706
- 2_3-Diphosphoglyceric acid [1]: -2.758
- 4-phosphopantothenate [1]: -2.584
- 6-phospho-D-gluconate [1]: -2.402
- FMN [1]: -1.9
- IMP [1]: -1.4619
- Pyrophosphate [1]: -2.687
- Sedoheptoluse bisphosphate [1]: -3.03
- cyclic-AMP [1]: -3.2218
- glutathione disulfide [1]: -1.807
- lactate [1]: -6.313
- myo-inositol [1]: -0.0001746
- nicotinate [1]: -0.2855
- ornithine [1]: 0.1501
- phosphoenolpyruvate [1]: -1.494
- pyruvate [1]: -2.492
- ribose-phosphate [1]: -0.0001746
- sarcosine/alanine [1]: -2.81
- sn-glycerol-3-phosphate [1]: -1.932
- succinate/methylmalonic acid [1]: -1.8645
- uridine [1]: -1.942
- xanthosine [1]: -0.05367
